{"source": "patent US10197563B2", "about": "“3-D in vitro model for breast cancer dormancy” (New Jersey Institute of Technology, priority 2015, dated 2019)", "key": {"MDA-MB-231 cells [1]": {"tested_on": "MDA-MB-231 cells", "test": "Carboplatin survival curve for chemotherapy treated and non-treated cells", "format": "cell-based", "details": "for percent viability: 220 μg/ml carboplatin", "description": "(§1) For determination of cell viability, treated as well as non-treated cells were used. MDA-MB-231 and T47D cells were seeded in T-175 tissue culture flasks. At 80% confluency, the growth media was replaced with fresh media containing different concentrations of carboplatin for 48 and 72 h. All experiments were repeated twice. After treatment, the culture media was collected in a 50 ml centrifugation tube, since it might contain dead cells necessary for cell counts. The cell monolayer was washed with PBS and then collected in the same tube. Cells were treated with Trypsin and, Trypsin with the cells was collected in the same 50 ml tube. The suspension was centrifuged (5 min, 1200 rpm) and the supernatant removed. The pellet was washed with PBS, centrifuged (5 min, 1200 rpm) and re-suspended again in complete culture media. Then, a small aliquot of the cell suspension (25 μl) was mixed with the same volume of 0.4% trypan blue (Sigma) solution and the sample was counted after 2 min of staining using a haemocytometer. The number of bright (viable) cells and blue cells (non-viable) were evaluated using a light microscope with a 20-fold magnification. After counting, the cell viability (CV) was expressed as the percentage of surviving cells compared to the total number of cells: CV=(viable cells/total number of cells)×100.\n(§2) The concentrations of drugs that were finally toxic to at least 50% of the cell population (IC50/cytotoxicity) were determined. Then, studies were performed looking at viability over the full range of carboplatin concentrations and compared to non-treated BCCs. At day 3-post treatment, viable resistant BCCs were selected and counted using standard protocols for downstream experiments on scaffolds."}, "MDA-MB-231 cells [2]": {"tested_on": "MDA-MB-231 cells", "test": "Carboplatin cytotoxicity, trypan blue test", "format": "cell-based", "description": "as §1, §2"}, "T47D cells [3]": {"tested_on": "T47D cells", "test": "Carboplatin cytotoxicity, trypan blue test", "format": "cell-based", "description": "as §1, §2"}, "T47D cells [4]": {"tested_on": "T47D cells", "test": "Flow cytometry of CD44/CD24 expression of carboplatin treated cells", "format": "cell-based"}, "MDA-MB-231 cells [5]": {"tested_on": "MDA-MB-231 cells", "details": "treated cells"}, "MDA-MB-231 cells [6]": {"tested_on": "MDA-MB-231 cells", "test": "Morphology of cells post addition of carboplatin", "format": "cell-based", "from_the_text": "For these studies carboplatin sensitivity of MDA-MB-231 cells was investigated as previously mentioned. Different subpopulations were obtained for subsequent studies on scaffolds. Under normal condition, BCCs population in culture can be seen to be composed of a heterogeneous population of giant multi-nucleated cells mixed with small single-nucleated cells (FIGS. 38a and b.). […] Therefore, cells at 3-4 days post treatment were selected as being carboplatin resistant MDA-MB-231 cells."}, "[7]": {"tested_on": "MDA-MB-231 and T47D cells", "test": "Western blots of breast cancer cell lines with increasing carboplatin dosage", "format": "cell-based", "details": "with increased carboplatin concentration", "description": "Western blot was performed to detect the following proteins: Bax, Bcl-2, Oct-4 and Sox-2 for BCCs on scaffolds. Briefly, whole cell extracts were prepared with the NP-40 buffer and nuclear/cytoplasmic extracts with NE-PER Nuclear and Cytoplasmic Extraction kit. BCC extracts (20 μg) were subjected to electrophoresis on 4-20% SDS-PAGE (Bio-Rad; Hercules, Calif.). Proteins were transferred to PVDF membranes, and membranes were incubated overnight in the respective primary antibodies. This was followed by 2 h incubation with HRP-conjugated secondary antibodies at 1:2000 final dilutions. The latter was detected with chemiluminescence. Membranes were stripped with Restore Western Blot Stripping Buffer and then re-probed for other proteins, including β-actin mAb (1:4000 dilution). All bands were normalized to β-actin."}, "[8]": {"details": "2 days post treatment, maximum carboplatin concentration of 50 μg/ml"}, "[9]": {"details": "3 days post treatment, 50 μg/ml carboplatin"}}, "data": [{"smiles": "N.N.O=C([O-])C1(C(=O)[O-])CCC1.[Pt+2]", "note": "[carboplatin]", "values": [{"measurement": "difference in percent viability between non-treated and treated cells", "setting": "MDA-MB-231 cells [1]; 0 to 100 μg/ml carboplatin", "result": "no significant difference"}, {"measurement": "percent viability", "setting": "MDA-MB-231 cells [1]; chemo-treated cells", "result": 80, "unit": "%"}, {"measurement": "percent viability", "setting": "MDA-MB-231 cells [1]; non-treated cells", "result": 20, "unit": "%"}, {"measurement": "decrease in percent viability", "setting": "MDA-MB-231 cells [1]; non-treated cells, 100 to 120 μg/ml carboplatin", "result": 30, "unit": "%"}, {"measurement": "decrease in percent viability", "setting": "MDA-MB-231 cells [1]; non-treated cells, 140 to 170 μg/ml carboplatin", "result": 40, "unit": "%"}, {"measurement": "decrease in percent viability", "setting": "MDA-MB-231 cells [1]; non-treated cells, 170 to 220 μg/ml carboplatin", "result": 80, "unit": "%"}, {"measurement": "decrease in percent viability", "setting": "MDA-MB-231 cells [1]; treated (chemoresistant) cells, 100 to 120 μg/ml carboplatin", "result": 10, "unit": "%"}, {"measurement": "decrease in percent viability", "setting": "MDA-MB-231 cells [1]; treated (chemoresistant) cells, 140 to 170 μg/ml carboplatin", "result": 20, "unit": "%"}, {"measurement": "decrease in percent viability", "setting": "MDA-MB-231 cells [1]; treated (chemoresistant) cells, 170 to 220 μg/ml carboplatin", "result": 20, "unit": "%"}, {"measurement": "death", "setting": "MDA-MB-231 cells [2]; [8]", "result": 17, "unit": "%"}, {"measurement": "death", "setting": "MDA-MB-231 cells [2]; [9]", "result": 25, "unit": "%"}, {"measurement": "death", "setting": "T47D cells [3]; [8]", "result": 28, "unit": "%"}, {"measurement": "death", "setting": "T47D cells [3]; [9]", "result": 48, "unit": "%"}, {"measurement": "CD44^+/CD24^+ cells", "setting": "T47D cells [4]", "result": 29, "unit": "%"}, {"measurement": "CD44^+/CD24^− cells", "setting": "T47D cells [4]", "result": 0.01, "unit": "%"}, {"measurement": "CD44^−/CD24^− cells", "setting": "T47D cells [4]", "result": 0.99, "unit": "%"}, {"measurement": "CD44^−/low/CD24^+ cells", "setting": "T47D cells [4]", "result": 70, "unit": "%"}, {"measurement": "CD44^+/CD24^+ cells", "setting": "MDA-MB-231 cells [5]", "result": 81.4, "unit": "%"}, {"measurement": "CD44^+/CD24^− cells", "setting": "MDA-MB-231 cells [5]", "result": 18, "unit": "%"}, {"measurement": "CD44^−/CD24^+ cells", "setting": "MDA-MB-231 cells [5]", "result": 0.09, "unit": "%"}, {"measurement": "CD44^−/CD24^− cells", "setting": "MDA-MB-231 cells [5]", "result": 0.51, "unit": "%"}, {"measurement": "cell morphology", "setting": "MDA-MB-231 cells [6]; 7 days post carboplatin treatment", "result": "fragmented and appeared to be dying"}, {"measurement": "giant multi-nucleated cells in culture", "setting": "MDA-MB-231 cells [6]; several hours post treatment with carboplatin", "result": "no longer present"}, {"measurement": "Bcl-2 expression", "setting": "[7]", "result": "increased"}, {"measurement": "Oct-4 expression", "setting": "[7]", "result": "increased"}, {"measurement": "Sox2 expression", "setting": "[7]", "result": "increased"}]}]}
